Results: patent publication US12290564B2, “Methods and apparatuses for treating tumors” (RenovoRx, Inc., priority 2017, dated 2025)

Tested on: locally advanced pancreatic cancer
Assay: Post-market registry study: intra-arterial (TAMP) delivery of gemcitabine with the RenovoCath RC120 catheter
Assay type: in vivo, human
Method: A post-market registry study was conducted to assess patient survival and clinical outcomes using the RenovoCath™ RC120 catheter (RenovoRx, Los Altos, Calif.) in a clinical, prospective observational setting when used to deliver a chemotherapeutic to the pancreas as described in Table 1. [table] […] An interventional radiologist used the RenovoCath™ RC 120 catheter to optimize drug delivery to the tumor(s). At the conclusion of the case, the femoral artery arteriotomy was sealed and patient monitored as per standard institutional protocol. All patients enrolled during the two-year registry enrollment period were followed periodically for survival outcome. Patients were contacted by telephone at the following intervals after the final intra-arterial treatment: 6 months±30 days, 1 year±30 days and 2 years±30 days. Patients were assessed for serious adverse events with specific attention to events related to local delivery of chemotherapeutic agents to the pancreas and device performance. FIG. 10 is a graph 1000 illustrating the effect of the TAMP technique on patient survival after radiation therapy compared with the effect of the TAMP technique with no radiation therapy. Fifteen patients with locally advanced pancreatic cancer were treated with gemcitabine in a dose-escalated protocol administered in four cycles using the TAMP technique. […]

**Q.** How did the “survival rates (survival percentage) of patients” value (gemcitabine by TAMP (eight treatments, or more than two treatments) compared with systemic infusion of gemcitabine (Chauffert et al. 2008), FIG. 9) turn out when Nc1ccn([C@@H]2O[C@H](CO)[C@@H](O)C2(F)F)c(=O)n1 [gemcitabine] was run?
**A.** greater than the survival rates of the patients given systemic infusion of the same drug

**Q.** And the patient survival (gemcitabine by TAMP, dose-escalated, four cycles, patients with prior radiation vs no prior treatment or only prior systemic chemotherapy, FIG. 10)?
**A.** significant improvement in survival
